{"source": "ChEMBL document CHEMBL6127076", "about": "“Scaffold hopping-driven optimization for the identification of NLRP3 inhibitors as potential gout therapeutics” (Eur J Med Chem, 2024)", "key": {"[1]": {"assay": "Inhibition of NLRP3 inflammasome pathway in human THP-1 cells assessed as inhibition of LPS/MSU-induced IL-1beta secretion"}, "HEK-293T": {"test_system": "HEK-293T", "assay": "Cytotoxicity against human HEK293T cells assessed as cell viability at 0.39 to 50 uM measured after 24 hrs by CCK8 assay", "format": "toxicity, cell-based", "details": "dose 0.39-50 µM"}, "[2]": {"assay": "Aqueous solubility of the compound in pH 7.4 PBS buffer", "format": "physicochemical"}, "[3]": {"assay": "Plasma stability in human plasma assessed as compound remaining measured after 5 mins", "format": "ADME, cell-free", "details": "read-out: Stability"}, "[4]": {"assay": "Plasma stability in human plasma assessed as compound remaining measured after 15 mins", "format": "ADME, cell-free", "details": "read-out: Stability"}, "[5]": {"assay": "Plasma stability in human plasma assessed as compound remaining measured after 30 mins", "format": "ADME, cell-free", "details": "read-out: Stability"}, "[6]": {"assay": "Plasma stability in human plasma assessed as compound remaining measured after 60 mins", "format": "ADME, cell-free", "details": "read-out: Stability"}, "[7]": {"assay": "Plasma stability in human plasma assessed as compound remaining measured after 120 mins", "format": "ADME, cell-free", "details": "read-out: Stability"}, "[8]": {"assay": "Plasma stability in human plasma assessed as compound remaining measured immediately", "format": "ADME, cell-free", "details": "read-out: Stability"}, "Cytochrome P450 1A2": {"target": "T1, Cytochrome P450 1A2 (Homo sapiens, UniProt P05177)", "T1 sequence (P05177 whole entry)": "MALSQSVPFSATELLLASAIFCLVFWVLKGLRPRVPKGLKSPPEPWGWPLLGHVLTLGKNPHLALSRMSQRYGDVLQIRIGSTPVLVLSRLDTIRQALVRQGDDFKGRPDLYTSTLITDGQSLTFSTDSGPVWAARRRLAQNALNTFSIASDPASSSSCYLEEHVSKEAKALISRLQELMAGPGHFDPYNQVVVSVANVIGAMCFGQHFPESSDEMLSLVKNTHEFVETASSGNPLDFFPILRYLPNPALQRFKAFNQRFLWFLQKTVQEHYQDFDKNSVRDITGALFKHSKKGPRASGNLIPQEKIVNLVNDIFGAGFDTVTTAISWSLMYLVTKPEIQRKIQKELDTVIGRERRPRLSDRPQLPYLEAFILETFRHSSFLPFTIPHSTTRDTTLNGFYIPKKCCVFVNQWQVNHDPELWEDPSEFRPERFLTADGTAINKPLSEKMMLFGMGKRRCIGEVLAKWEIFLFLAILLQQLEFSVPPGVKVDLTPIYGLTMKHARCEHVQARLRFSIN", "assay": "Inhibition of CYP1A2 (unknown origin)", "format": "ADME"}, "Cytochrome P450 2C9": {"target": "Cytochrome P450 2C9 (Homo sapiens, UniProt P11712)", "sequence (P11712 whole entry)": "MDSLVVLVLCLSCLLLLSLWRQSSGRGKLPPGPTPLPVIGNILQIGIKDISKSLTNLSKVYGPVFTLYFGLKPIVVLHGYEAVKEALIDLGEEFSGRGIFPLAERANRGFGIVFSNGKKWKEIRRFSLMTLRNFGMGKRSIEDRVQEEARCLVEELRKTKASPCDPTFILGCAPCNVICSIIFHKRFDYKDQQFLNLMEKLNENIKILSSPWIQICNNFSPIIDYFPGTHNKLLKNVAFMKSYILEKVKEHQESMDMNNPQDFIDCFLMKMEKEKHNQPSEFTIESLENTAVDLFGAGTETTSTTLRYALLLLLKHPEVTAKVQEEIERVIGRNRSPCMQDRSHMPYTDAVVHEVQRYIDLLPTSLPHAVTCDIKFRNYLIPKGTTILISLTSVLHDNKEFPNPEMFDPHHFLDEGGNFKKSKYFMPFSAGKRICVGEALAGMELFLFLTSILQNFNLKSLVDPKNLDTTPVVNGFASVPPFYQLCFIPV", "assay": "Inhibition of CYP2C9 (unknown origin)", "format": "ADME"}, "Cytochrome P450 2C19": {"target": "Cytochrome P450 2C19 (Homo sapiens, UniProt P33261)", "sequence (P33261 whole entry)": "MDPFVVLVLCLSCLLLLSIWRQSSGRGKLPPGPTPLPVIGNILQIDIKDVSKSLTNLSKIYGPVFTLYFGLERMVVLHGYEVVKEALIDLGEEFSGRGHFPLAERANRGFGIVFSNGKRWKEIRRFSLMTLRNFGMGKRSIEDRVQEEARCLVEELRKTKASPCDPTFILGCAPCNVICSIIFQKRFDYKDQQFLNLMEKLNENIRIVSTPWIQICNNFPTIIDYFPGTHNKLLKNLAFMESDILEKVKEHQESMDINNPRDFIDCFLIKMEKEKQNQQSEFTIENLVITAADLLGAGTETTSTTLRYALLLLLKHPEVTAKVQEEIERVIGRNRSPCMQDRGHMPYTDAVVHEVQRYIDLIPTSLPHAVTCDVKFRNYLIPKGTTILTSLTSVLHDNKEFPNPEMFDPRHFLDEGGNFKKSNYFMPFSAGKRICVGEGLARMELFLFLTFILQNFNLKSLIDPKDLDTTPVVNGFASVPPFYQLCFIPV", "assay": "Inhibition of CYP2C19 (unknown origin)", "format": "ADME"}, "Cytochrome P450 3A4 [9]": {"target": "T2, Cytochrome P450 3A4 (Homo sapiens, UniProt P08684)", "T2 sequence (P08684 whole entry)": "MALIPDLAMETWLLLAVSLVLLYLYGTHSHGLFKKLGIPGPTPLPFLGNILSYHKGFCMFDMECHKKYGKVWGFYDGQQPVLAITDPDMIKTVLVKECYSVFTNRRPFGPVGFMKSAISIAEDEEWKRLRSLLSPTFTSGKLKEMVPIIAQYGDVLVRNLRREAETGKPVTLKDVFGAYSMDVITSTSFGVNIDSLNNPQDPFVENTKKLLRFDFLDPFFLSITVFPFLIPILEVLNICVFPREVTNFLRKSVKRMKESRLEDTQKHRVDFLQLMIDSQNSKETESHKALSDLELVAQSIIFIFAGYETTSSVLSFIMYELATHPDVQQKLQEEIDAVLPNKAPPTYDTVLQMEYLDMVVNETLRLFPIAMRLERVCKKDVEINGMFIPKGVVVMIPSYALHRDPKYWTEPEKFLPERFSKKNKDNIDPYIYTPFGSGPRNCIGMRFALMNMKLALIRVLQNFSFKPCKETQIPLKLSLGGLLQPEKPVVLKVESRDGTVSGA", "assay": "Inhibition of CYP3A4 (unknown origin) using midazolam as substrate", "format": "ADME"}, "Cytochrome P450 3A4 [10]": {"target": "T2, Cytochrome P450 3A4", "assay": "Inhibition of CYP3A4 (unknown origin) using testosterone as substrate", "format": "ADME"}, "Cytochrome P450 2D6": {"target": "Cytochrome P450 2D6 (Homo sapiens, UniProt P10635)", "sequence (P10635 whole entry)": "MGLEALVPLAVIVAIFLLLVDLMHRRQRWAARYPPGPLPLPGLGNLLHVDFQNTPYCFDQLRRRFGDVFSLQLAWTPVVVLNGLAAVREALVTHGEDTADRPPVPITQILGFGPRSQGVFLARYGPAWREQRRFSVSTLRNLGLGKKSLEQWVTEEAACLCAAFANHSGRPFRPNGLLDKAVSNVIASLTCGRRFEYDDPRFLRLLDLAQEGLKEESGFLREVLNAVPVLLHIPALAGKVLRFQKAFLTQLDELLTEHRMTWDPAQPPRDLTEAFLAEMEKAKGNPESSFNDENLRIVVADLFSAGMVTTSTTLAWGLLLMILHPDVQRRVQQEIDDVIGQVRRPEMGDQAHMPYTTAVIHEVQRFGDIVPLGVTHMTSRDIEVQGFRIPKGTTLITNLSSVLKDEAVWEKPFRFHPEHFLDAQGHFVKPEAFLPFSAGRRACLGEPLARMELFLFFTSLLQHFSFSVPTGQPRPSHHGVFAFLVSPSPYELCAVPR", "assay": "Inhibition of CYP2D6 (unknown origin)", "format": "ADME"}, "THP-1-M [11]": {"test_system": "THP-1-M", "assay": "Effect on ROS generation in Nigericin-induced human THP-1-M cells assessed as effect on increase in ROS generation by MitoSOX staining based confocal microscopic analysis", "format": "functional, cell-based"}, "THP-1-M [12]": {"test_system": "THP-1-M", "assay": "Effect on mitochondrial damage in Nigericin-induced human THP-1-M cells by MitoTracker staining based confocal microscopic analysis", "format": "functional, cell-based"}, "BMDM [13]": {"test_system": "BMDM", "assay": "Effect on NLPR3 expression in Nigericin-induced in C57BL/6J mouse BMDM cells at 3 to 30 uM by immunoblotting analysis", "format": "functional, cell-based", "details": "dose 3-30 µM"}, "BMDM [14]": {"test_system": "BMDM", "assay": "Effect on pro-caspase 1 expression in Nigericin-induced in C57BL/6J mouse BMDM cells at 3 to 30 uM by immunoblotting analysis", "format": "functional, cell-based", "details": "dose 3-30 µM"}, "BMDM [15]": {"test_system": "BMDM", "assay": "Effect on pro-IL-1beta expression in Nigericin-induced in C57BL/6J mouse BMDM cells at 3 to 30 uM by immunoblotting analysis", "format": "functional, cell-based", "details": "dose 3-30 µM"}, "BMDM [16]": {"test_system": "BMDM", "assay": "Effect on ASC expression in Nigericin-induced in C57BL/6J mouse BMDM cells at 3 to 30 uM by immunoblotting analysis", "format": "functional, cell-based", "details": "dose 3-30 µM"}, "BMDM [17]": {"test_system": "BMDM", "assay": "Effect on NEK7 expression in Nigericin-induced in C57BL/6J mouse BMDM cells at 3 to 30 uM by immunoblotting analysis", "format": "functional, cell-based", "details": "dose 3-30 µM"}, "Mus musculus [18]": {"test_system": "Mus musculus", "assay": "Anti-inflammatory activity against MSU-induced peritonitis mouse model assessed as reduction in IL-1beta secretion in peritoneal cavity treated by gavage 30 mins before MSU induction measured after 6 hrs modeling by ELISA", "format": "functional, organism-based", "details": "dose 5-30 mg/kg, route po"}, "Mus musculus [19]": {"test_system": "Mus musculus", "assay": "Anti-inflammatory activity against MSU-induced peritonitis mouse model assessed as reduction in IL-1beta secretion in peritoneal cavity at 30 mg/kg, treated by gavage 30 mins before MSU induction measured after 6 hrs modeling by ELISA", "format": "functional, organism-based", "details": "route po"}, "Mus musculus [20]": {"test_system": "Mus musculus", "assay": "Anti-arthritis activity against MSU-induced arthritis mouse model assessed as decrease in von Frey pain threshold treated by gavage 30 mins before MSU induction measured for day 3 to day 7", "format": "functional, organism-based", "details": "dose 5-30 mg/kg, route po, time 3-7 day"}, "Mus musculus [21]": {"test_system": "Mus musculus", "assay": "Anti-arthritis activity against MSU-induced arthritis mouse model assessed as decrease in decrease in swelling in joint treated by gavage 30 mins before MSU induction measured for 7 days", "format": "functional, organism-based", "details": "dose 5-30 mg/kg, route po, time 7.0 day"}}, "note": "Activity calls are given as the source filed them."}
{"smiles": "CC1(C)C(=O)N(c2ccc(C(F)(F)F)cc2)C(=S)N1Cc1ccc(S(N)(=O)=O)c(F)c1", "values": [{"measurement": "IC50", "setting": "[1]", "value": 4.8, "unit": "µM"}, {"measurement": "Activity", "setting": "HEK-293T", "value": "Non-Toxic"}, {"measurement": "solubility", "setting": "[2]", "value": 53.7, "unit": "µM"}, {"measurement": "remaining at 5 min", "setting": "[3]", "value": 100, "unit": "%"}, {"measurement": "remaining at 0.25 h", "setting": "[4]", "value": 99.5, "unit": "%"}, {"measurement": "remaining at 0.5 h", "setting": "[5]", "value": 104, "unit": "%"}, {"measurement": "remaining at 1 h", "setting": "[6]", "value": 103, "unit": "%"}, {"measurement": "remaining at 2 h", "setting": "[7]", "value": 96.9, "unit": "%"}, {"measurement": "remaining at 0 min", "setting": "[8]", "value": 100, "unit": "%"}, {"measurement": "IC50", "setting": "Cytochrome P450 1A2", "value": "> 100", "unit": "µM"}, {"measurement": "IC50", "setting": "Cytochrome P450 2C9", "value": "> 10", "unit": "µM"}, {"measurement": "IC50", "setting": "Cytochrome P450 2C19", "value": "> 10", "unit": "µM"}, {"measurement": "IC50", "setting": "Cytochrome P450 3A4 [9]", "value": "> 10", "unit": "µM"}, {"measurement": "IC50", "setting": "Cytochrome P450 3A4 [10]", "value": "> 10", "unit": "µM"}, {"measurement": "IC50", "setting": "Cytochrome P450 2D6", "value": "> 10", "unit": "µM"}, {"measurement": "Activity", "setting": "THP-1-M [11]", "value": "inactive"}, {"measurement": "Activity", "setting": "THP-1-M [12]", "value": "inactive"}, {"measurement": "Activity", "setting": "BMDM [13]", "value": "inactive"}, {"measurement": "Activity", "setting": "BMDM [14]", "value": "inactive"}, {"measurement": "Activity", "setting": "BMDM [15]", "value": "inactive"}, {"measurement": "Activity", "setting": "BMDM [16]", "value": "inactive"}, {"measurement": "Activity", "setting": "BMDM [17]", "value": "inactive"}, {"measurement": "Activity", "setting": "Mus musculus [18]", "value": "Dose-Dependent Effect"}, {"measurement": "Activity", "setting": "Mus musculus [19]", "value": "Active"}, {"measurement": "Activity", "setting": "Mus musculus [20]", "value": "Dose-Dependent Effect"}, {"measurement": "Activity", "setting": "Mus musculus [21]", "value": "Dose-Dependent Effect"}]}
